Measured values published in ChEMBL document CHEMBL1649156, “Antianaerobic activity of sulopenem compared to six other agents” (2009).

Assays:
Type in all cases: functional
[1] = tested on: Clostridioides difficile; test: Antimicrobial activity in Clostridium difficile by CLSI agar dilution method in presence of Tazobactam
[2] = tested on: Clostridium sp.; test: Antimicrobial activity in Clostridium sp. by CLSI agar dilution method in presence of Tazobactam
[3] = tested on: Clostridium tertium; test: Antimicrobial activity in Clostridium tertium by CLSI agar dilution method in presence of Tazobactam
[4] = tested on: Thomasclavelia ramosa; test: Antimicrobial activity in Clostridium ramosum by CLSI agar dilution method in presence of Tazobactam
[5] = tested on: Clostridium cadaveris; test: Antimicrobial activity in Clostridium cadaveris by CLSI agar dilution method in presence of Tazobactam
[6] = tested on: Paraclostridium bifermentans; test: Antimicrobial activity in Clostridium bifermentans by CLSI agar dilution method in presence of Tazobactam
[7] = tested on: [Clostridium] innocuum; test: Antimicrobial activity in Clostridium innocuum by CLSI agar dilution method in presence of Tazobactam
[8] = tested on: Paeniclostridium sordellii; test: Antimicrobial activity in Clostridium sordellii by CLSI agar dilution method in presence of Tazobactam; settings: Paraclostridium sordellii
[9] = tested on: Clostridium butyricum; test: Antimicrobial activity in Clostridium butyricum by CLSI agar dilution method in presence of Tazobactam
[10] = tested on: Bacteroides fragilis; test: Antimicrobial activity in Bacteroides fragilis by CLSI agar dilution method in presence of Tazobactam
[11] = tested on: Bacteroides thetaiotaomicron; test: Antimicrobial activity in Bacteroides thetaiotaomicron by CLSI agar dilution method in presence of Tazobactam
[12] = tested on: Bacteroides ovatus; test: Antimicrobial activity in Bacteroides ovatus by CLSI agar dilution method in presence of Tazobactam
[13] = tested on: Phocaeicola vulgatus; test: Antimicrobial activity in Bacteroides vulgatus by CLSI agar dilution method in presence of Tazobactam
[14] = tested on: Parabacteroides distasonis; test: Antimicrobial activity in Bacteroides distasonis by CLSI agar dilution method in presence of Tazobactam
[15] = tested on: Bacteroides uniformis; test: Antimicrobial activity in Bacteroides uniformis by CLSI agar dilution method in presence of Tazobactam
[16] = tested on: Bacteroides stercoris; test: Antimicrobial activity in Bacteroides stercoris by CLSI agar dilution method in presence of Tazobactam
[17] = tested on: Prevotella bivia; test: Antimicrobial activity in Prevotella bivia by CLSI agar dilution method in presence of Tazobactam
[18] = tested on: Prevotella buccae; test: Antimicrobial activity in Prevotella buccae by CLSI agar dilution method in presence of Tazobactam; settings: Segatella buccae
[19] = tested on: Prevotella melaninogenica; test: Antimicrobial activity in Prevotella melaninogenica by CLSI agar dilution method in presence of Tazobactam
[20] = tested on: Prevotella denticola; test: Antimicrobial activity in Prevotella denticola by CLSI agar dilution method in presence of Tazobactam
[21] = tested on: Prevotella intermedia; test: Antimicrobial activity in Prevotella intermedia by CLSI agar dilution method in presence of Tazobactam
[22] = tested on: Prevotella nigrescens; test: Antimicrobial activity in Prevotella nigrescens by CLSI agar dilution method in presence of Tazobactam
[23] = tested on: Prevotella corporis; test: Antimicrobial activity in Prevotella corporis by CLSI agar dilution method in presence of Tazobactam
[24] = tested on: Enterocloster clostridioformis; test: Antimicrobial activity in Clostridium clostridioforme by CLSI agar dilution method in presence of Tazobactam
[25] = tested on: Tissierella praeacuta; test: Antimicrobial activity in Clostridium hastiforme by CLSI agar dilution method in presence of Tazobactam
[26] = tested on: Porphyromonas gingivalis; test: Antimicrobial activity in Porphyromonas gingivalis by CLSI agar dilution method in presence of Tazobactam

CCN1CCN(C(=O)N[C@@H](C(=O)N[C@@H]2C(=O)N3[C@@H]2SC(C)(C)[C@@H]3C(=O)O)c2ccccc2)C(=O)C1=O [PIPERACILLIN]
2 µg/mL: MIC90 [2] | MIC90 [10] | MIC50 [12] | MIC50 [13] | MIC [25]
0.5 µg/mL: MIC [6] | MIC [9] | MIC50 [10] | MIC [15]
4 µg/mL: MIC [3] | MIC90 [12] | MIC50 [14] | MIC90 [14]
1 µg/mL: MIC50 [2] | MIC50 [15] | MIC50 [16]
≤ 0.125 µg/mL: MIC [4] | MIC [5] | MIC [7] | MIC [8] | MIC [16] | MIC [17] | MIC50 [17] | MIC90 [17] | MIC [18] | MIC50 [18] | MIC90 [18] | MIC [19] | MIC50 [19] | MIC90 [19] | MIC [20] | MIC50 [20] | MIC90 [20] | MIC [21] | MIC50 [21] | MIC90 [21] | MIC [22] | MIC50 [22] | MIC90 [22] | MIC [23] | MIC50 [23] | MIC [26]
8 µg/mL: MIC [1] | MIC50 [1] | MIC50 [3] | MIC50 [11] | MIC [24]
16 µg/mL: MIC90 [1] | MIC90 [11] | MIC90 [13]
